We go through one substance from patent publication US12357669B1, “Modification of natural compounds to create products with enhanced health benefits” (priority 2024, dated 2025).

This test relates to patient with continuously active ulcerative colitis (UC). In words: observations in a patient with continuously active ulcerative colitis (UC). Format: in vivo, human. As to conditions: components without prior formation of the chelate/complex. From the text:
Many patients with ulcerative colitis have remitting/recurring disease activity which occurs spontaneously at random times. Other factors, such as changes in diet, stress, intercurrent use of medications either to control symptoms of UC or used to treat other conditions, such as antibiotics non steroidal pain medications and steroids, may make inflammation and symptoms worse or better depending on their particular properties.
Some patients with UC have unremitting continuously active disease which never goes into remission spontaneously. Such patients make excellent study subjects since the action of compounds designed to reduce disease activity and symptoms can be evaluated without the complicating factor of spontaneous changes in disease severity.
In the patient studied in this report disease activity was observed over several decades and was continuously active with no spontaneous remissions.

On to iron, for which the “amelioration of the symptoms of ulcerative colitis” value was “not seen”.
